The structures appear in SMILES notation. Where two headings read alike, the source gives them in different places.

For the test, the system named is H.Ep-2 cell line. The experiment in a line: Cytotoxicity in vitro, cell survival by trypan blue exclusion. The class given is cell-based. The settings on record: Homo sapiens, read-out: IC50 (dose required to give 50% cell survival). Here is the method: Cytotoxicity in vitro. The human epidermoid carcinoma cell line H.Ep-2 was originally obtained from a metastatic nodule in the neck of a patient with a primary tumour of the larynx. it was established in tissue culture after two generations in X-irradiated, cortisone-treated rats. Immunocytochemistry has shown the cells to bind the H17E2 antibody, but not HMFGl, which was used as a negative control in these studies. Cells were cultured in RPMI 1640 tissue culture medium supplemented with 10% foetal calf serum (Gibco Ltd, Paisley, Scotland). For cell survival experiments, after harvesting with 0.02% EDTA, 5×10^5 cells were plated in quadruplicate into 25-cm^2 Falcon flasks (Becton Dickinson, N.J., USA). Twenty-four hours later the cytotoxic agent was added (either amygdalin alone, β-glucosidase alone, amygdalin plus β-glucosidase, potassium cyanide alone, amygdalin plus H17E2β-glucosidase conjugate or amygdalin plus HMFGl-β-glucosidase conjugate). After 24 h exposure, the medium containing the drug was replaced with fresh medium and the cells allowed to grow for a further 24 h before counting by haemacytometry, using trypan blue exclusion as the criterion for cell integrity.

For the compound `N#C[C@H](O[C@@H]1O[C@H](CO[C@@H]2O[C@H](CO)[C@@H](O)[C@H](O)[C@H]2O)[C@@H](O)[C@H](O)[C@H]1O)c1ccccc1` [amygdalin, D-mandelonitrile-β-D-glucosido-6-β-D-glycoside], the IC50 (commonly the concentration needed to halve the response being measured) (HEp-2, in the presence of 0.35 μM β-glucosidase) turned out to be 600 ± 300 µM and the half-inhibitory concentration (IC50) (HEp-2, in the presence of 3.5 μM β-glucosidase) was found to be 500 ± 200 µM.

The values are drawn from patent US20020114813A1, “Compounds” (priority 1990, published 2002).
